Experimental data as given in paper PMC6268972, “Antiproliferative, Antimicrobial and Apoptosis Inducing Effects of Compounds Isolated from Inula viscosa” (Molecules, 2012).
In brackets after ≈: the same amount, converted by molar mass.

How the values were obtained:
Hep-2 cells = experiment: MTT antiproliferative activity assay, Hep-2; format: cell-based; conditions: Homo sapiens, HEp-2; MTT, 48 h treatment, average of three replicates; read-out: IC50 Hep-2
Protocol: (§1) Hep-2 (larynx carcinoma, ATCC: CCL-23), MCF-7 (breast epithelial adenocarcinoma, ATCC: HTB-22), and Vero (African green monkey kidney, ATCC: CCL-81) cell lines were kindly provided by Dr. Mona Hassuneh (Department of Biological Sciences, University of Jordan). Cells were grown in Minimum Essential Medium Eagle (Gibco, Paisley UK) supplemented with 10% heat inactivated fetal bovine serum (Gibco, Paisley UK), 29 μg/mL L-glutamine, and 40 μg/mL gentamicin. Cells were incubated in a humidified atmosphere of 5% CO2 at 37 °C.
(§2) The antiproliferative activity of Inula viscosa compounds was measured using the MTT (3-(4,5-dimethylthiazol-2-yl)-2,5-diphenyltetrazolium bromide) assay (Promega, Madison, WI, USA). The assay detects the reduction of MTT by mitochondrial dehydrogenase to blue formazan product, which reflects the normal function of mitochondria and cell viability. Exponentially growing cells were washed and seeded at 17,000 cells/well for Hep-2 cell line and 11,000 cells/ well for MCF-7 cell line (in 200 μL of growth medium) in 96 well microplates (Nunc, Roskilde, Denmark). After 24 h incubation, a partial monolayer was formed then the media was removed and 200 μL of the medium containing the compound (initially dissolved in DMSO) were added and re-incubated for 48 h. Then 100 μL of the medium were aspirated and 15 μL of the MTT solution were added to the remaining medium (100 μL) in each well. After 4 h contact with the MTT solution, blue crystals were formed. One hundred μL of the stop solution were added and incubated further for 1 h.
(§3) Reduced MTT was assayed at 550 nm using a microplate reader (Biotek, Winooski, VT, USA). Control groups received the same amount of DMSO (0.1%).Untreated cells were used as a negative control while, cells treated with vincristine sulfate were used as a positive control. Eight concentrations (150, 100, 50, 20, 10, 5, 2, and 1 μg/mL) were prepared from each compound and tested against the three cell lines. IC50 values were calculated as the concentrations that show 50% inhibition of proliferation on any tested cell line. Stock solutions of the compounds were dissolved in (DMSO) then diluted with the medium and sterilized using 0.2 μm membrane filters. The toxicity of DMSO was determined and the final dilution of compounds used for treating the cells contained not more than 0.1% (non toxic concentration) DMSO. IC50 values were reported as the average of three replicates. The antiproliferative effect of the tested compounds was determined by comparing the optical density of the treated cells against the optical density of the control (cells treated with media containing 0.1% DMSO).

Vero cells = experiment: MTT antiproliferative activity assay, Vero; format: cell-based, African green monkey; conditions: Chlorocebus sabaeus, Vero; MTT, 48 h treatment, average of three replicates; read-out: IC50 Vero
Protocol: as §1, §2, §3

MCF-7 cells = experiment: MTT antiproliferative activity assay, MCF-7; format: cell-based, human; conditions: Homo sapiens, MCF7; MTT, 48 h treatment, average of three replicates; read-out: IC50 MCF-7
Protocol: as §1, §2, §3

Salmonella typhimurium = experiment: Microtiter plate dilution MIC, S. typhimurium; format: cell-based; conditions: Salmonella enterica, ATCC 14028 / TYPHIMURIUM; ATCC14028, 24 h, 100% inhibition; read-out: Minimum inhibitory concentration (MIC) S.t
Protocol: (§4) The microbial strains used in this study were Escherichia coli (ATCC 10798), Salmonella typhimurium (ATCC14028), Methicillin resistant Staphylococcus aureus (MRSA, Clinical isolate), Bacillus cereus (Toxigenic strain TS), and Candida albicans (ATCC 90028). Bacterial strains were stocked onto nutrient agar slant at 4 °C, and Candida albicans was stocked onto malt agar slant at 4 °C.
(§5) The microtiter plate dilution method was used to determine the MIC (minimum inhibitory concentration) of compounds under study. Sterile 96-well microplates (Nunc) were used for the assay. Stock compounds were dissolved in DMSO so that the final concentrations in micro wells were less than 1% DMSO and solvent controls were run at these concentrations. Positive controls of penicillin G and tetracycline (Oxoid, Hampshire, UK) were prepared at the following concentrations 2, 4, 8, 16, 31, 62.5, 125, and 250 μg/mL. 1% DMSO was used as a solvent control. Compounds were diluted to twice the desired initial test concentration (250 µg/mL) with Muller Hinton broth (MHB) (Oxoid). All wells, except the first were filled with MHB (50 μL). Compounds (100 μL) were added to the first well and serial two-fold dilutions were made down to the desired minimum concentration (2 μg/mL). An over-night culture of bacteria suspended in MHB was adjusted to turbidity equal to 0.5 McFarland standard. The plates were inoculated with bacterial suspension (50 μL/well) and incubated at 37 °C for 24 h. Then the turbidity was measured using micro-plate reader (Biotek) at 620 nm wavelength. The same procedure was used to determine the antifungal activity of compounds against Candida albicans. The medium used was malt extract broth. The yeast cells were suspended in 0.85% saline, with an optical density equivalent to 0.5 McFarland standard, and diluted 1:100 in malt extract broth to obtain the working concentration. After 24 h incubation with each compound, the turbidity was measured at 530 nm wavelength using a spectrophotometer (Biotek). Percentage inhibition for tested microorganisms was calculated using the following formula:
(§6) MIC was determined as the lowest concentration of the compound that causes complete inhibition (100%) of each microorganism.

Escherichia coli = experiment: Microtiter plate dilution MIC, E. coli; format: cell-based; conditions: Escherichia coli, ATCC10798; ATCC 10798, 24 h, 100% inhibition; read-out: Minimum inhibitory concentration (MIC) E.c
Protocol: as §4, §5, §6

Candida albicans = experiment: Microtiter plate dilution MIC, C. albicans; format: cell-based; conditions: Candida albicans, ATCC90028; ATCC 90028, malt extract broth, 24 h, 100% inhibition; read-out: Minimum inhibitory concentration (MIC) C.a
Protocol: as §4, §5, §6

Bacillus cereus = experiment: Microtiter plate dilution MIC, B. cereus; format: cell-based; conditions: Bacillus cereus; Toxigenic strain TS, 24 h, 100% inhibition; read-out: Minimum inhibitory concentration (MIC) B.c
Protocol: as §4, §5, §6

IC50 (MCF-7 cells): 10.1 ± 1.15 µg/mL (≈ 30.6 µM)
MIC (Salmonella typhimurium): 125 µg/mL (≈ 378 µM)
MIC (Escherichia coli): > 250 µg/mL
MIC (Candida albicans): 250 µg/mL (≈ 757 µM)
Structure (SMILES): COc1cc(-c2oc3cc(O)cc(O)c3c(=O)c2OC)ccc1O [3,3′-di-O-Methylquercetin]
IC50 (Hep-2 cells): 28 ± 1.13 µg/mL (≈ 84.8 µM)
IC50 (Vero cells): > 150 µg/mL
MIC (Bacillus cereus): 62.5 µg/mL (≈ 189 µM)
